One assay deals with T1, H^+ K^+ ATPase (Sus scrofa, UniProt P19156).
T1 construct: Lyophilised gastric vesicles were prepared from pig fundic mucosa; from tissue; host or cells: pig fundic mucosa, lyophilised gastric vesicles
Description: H^+ K^+ ATPase Activity (K^+ -stimulated ATPase activity in lyophilised gastric vesicles). Format: biochemical. The note with it: pig lyophilised gastric vesicles, pH 7.0, 37°, 30 minutes. The procedure: The effects of a single high concentration (100 μM) of a compound of structure (I) on K-stimulated ATPase activity in lyophilised gastric vesicles was determined. Preferred compounds of structure (I) were also tested over a range of concentrations to determine IC50 values.
Lyophilised gastric vesicles were prepared from pig fundic mucosa after the method of Keeling et. al. (Biochem. Pharmacol., 34, 2967, 1985).
K^+ -stimulated ATPase activity was determined at 37° in the presence of the following: 10 mM Pipes/Tris buffer pH 7.0, 2 mM MgSO4, 1 mM KCl, 2 mM Na2 ATP and 3-6 μg protein/ml lyophilised gastric vesicles. After incubation for 30 minutes, the inorganic phosphate hydrolysed from ATP was determined by the method of Yoda and Hokin (Biochem. Biophys. Res. Commun. 40, 880, 1970).
Compounds of structure (I) were dissolved in dimethylsulphoxide which up to the highest concentration used had no effect on K^+ -stimulated ATPase activity.
The effect of the highest concentration of each compound of structure (I) on the recovery of a standard amount of inorganic phosphate was also determined.

In assay [1] the test system is pentagastrin stimulated gastric acid secretion. The assay can be described thus: Rat Lumen Perfused Stomach (pentagastrin stimulated gastric acid secretion). The format is in vivo. The following applies: for % inhibition of pentagastrin stimulated gastric acid secretion: i.v., 10 μmole/kg. The text has this: B. Rat Lumen Perfused Stomach (pentagastrin stimulated gastric acid secretion).
Using a modification of the procedure described by Ghosh & Schild (Br. J. Pharmacology, 13, 54, 1958), the compounds of the following examples were found on i.v. administration at a concentration of 10 μmole/kg to cause an inhibition of pentagastrin stimulated gastric acid secretion as indicated in the following table. Results are given as % inhibition at 10 μmole/kg or ED50 (μM/kg): […]

T1 sequence (P19156 2-1034 limits assumed): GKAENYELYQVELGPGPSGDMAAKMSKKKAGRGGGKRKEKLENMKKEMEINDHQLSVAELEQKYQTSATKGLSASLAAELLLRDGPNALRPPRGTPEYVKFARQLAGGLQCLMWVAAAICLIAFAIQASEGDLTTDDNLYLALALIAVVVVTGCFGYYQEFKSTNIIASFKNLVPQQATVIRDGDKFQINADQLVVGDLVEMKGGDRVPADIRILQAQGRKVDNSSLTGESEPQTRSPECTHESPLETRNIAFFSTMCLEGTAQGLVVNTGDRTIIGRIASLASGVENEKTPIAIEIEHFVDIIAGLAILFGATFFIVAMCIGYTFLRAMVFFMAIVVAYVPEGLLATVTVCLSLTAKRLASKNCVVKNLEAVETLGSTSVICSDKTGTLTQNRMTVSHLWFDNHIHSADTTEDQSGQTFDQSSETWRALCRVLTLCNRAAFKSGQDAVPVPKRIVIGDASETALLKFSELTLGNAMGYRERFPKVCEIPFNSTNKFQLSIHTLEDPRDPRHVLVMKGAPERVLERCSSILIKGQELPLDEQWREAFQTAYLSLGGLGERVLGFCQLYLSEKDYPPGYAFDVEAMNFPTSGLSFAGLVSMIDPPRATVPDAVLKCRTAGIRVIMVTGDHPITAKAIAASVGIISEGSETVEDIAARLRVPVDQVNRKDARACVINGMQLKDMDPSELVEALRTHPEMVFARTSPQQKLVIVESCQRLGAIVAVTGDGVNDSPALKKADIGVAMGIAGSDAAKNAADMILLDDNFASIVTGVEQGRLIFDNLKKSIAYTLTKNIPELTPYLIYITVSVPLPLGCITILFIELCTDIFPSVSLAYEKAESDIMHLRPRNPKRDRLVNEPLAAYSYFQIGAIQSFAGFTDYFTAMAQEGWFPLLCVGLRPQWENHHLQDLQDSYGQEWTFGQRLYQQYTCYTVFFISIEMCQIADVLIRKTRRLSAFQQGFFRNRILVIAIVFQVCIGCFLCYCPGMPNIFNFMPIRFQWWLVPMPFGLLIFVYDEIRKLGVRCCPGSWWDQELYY
T1 sequence (P18434 whole entry partner): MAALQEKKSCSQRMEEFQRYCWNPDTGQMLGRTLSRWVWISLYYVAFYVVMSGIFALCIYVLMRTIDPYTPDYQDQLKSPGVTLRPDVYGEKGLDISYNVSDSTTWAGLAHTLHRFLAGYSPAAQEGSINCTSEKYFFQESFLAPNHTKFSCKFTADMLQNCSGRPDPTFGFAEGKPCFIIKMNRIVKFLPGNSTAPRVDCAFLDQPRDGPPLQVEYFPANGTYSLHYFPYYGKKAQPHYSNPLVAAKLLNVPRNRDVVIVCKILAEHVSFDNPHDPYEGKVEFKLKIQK

Regarding `CCOC(=O)c1cnc2c(OC)cccc2c1Nc1cscc1C` [Example 1, Ethyl 8-methoxy-4-(4-methyl-3-thienylamino)quinoline 3-carboxylate], the IC50 at H^+ K^+ ATPase was determined as 0.53 µM. For the same compound, in assay [1] (iv, read-out: ED50, inhibition of pentagastrin stimulated gastric acid secretion), the ED50 amounted to 4.62 µmol/kg.

`CCCC(=O)c1cnc2c(OC)cccc2c1Nc1ccsc1CC` [Example 2, 3-Butyryl-4-(2-ethyl-3-thienylamino)-8-methoxyquinoline] returned an IC50 against H^+ K^+ ATPase of 1.4 µM. Further, the “% inhibition of pentagastrin stimulated gastric acid secretion” value (“% inhibition” for short) in assay [1] was determined as 61%.

In the case of `CCCC(=O)c1cnc2c(OC)cccc2c1Nc1ccsc1C(=O)OC` [Example 3], in assay [1], the “% inhibition” value was determined as 48%.

Take `CCCC(=O)c1cnc2c(OC)cccc2c1Nc1sccc1C` [Example 4, 3-Butyryl-4-(3-methyl-2-thienylamino)-8-methoxyquinoline]: it took 2.3 µM to reach half-maximal inhibition against H^+ K^+ ATPase (IC50). Further, in assay [1], the “% inhibition” value stood at 58%.

With `CCOC(=O)c1cnc2c(OC)cccc2c1Nc1cscc1OC` [Example 5, Ethyl 8-methoxy-4-(4-methoxy-3-thienylamino)quinoline-3-carboxylate], on H^+ K^+ ATPase, the IC50 turned out to be 3.4 µM. Further, the “% inhibition” value in assay [1] is given as 41%.

(Values after patent US5006535A, “Substituted heterocylic 4-aminoquinoline derivatives as gastric acid secretion inhibitors” (Smith Kline & French Laboratories Ltd., priority 1988, dated 1991).)
